Laboratory results from the NIST ThermoML archive (doi:10.1016/j.jct.2006.02.005).
“And” between values parts separate entries of the source, which are not always exact repeats. Equal values may be shown once.

What was measured:
[1] = molar heat capacity at constant pressure; conditions: 101.33 kPa
[2] = Molar enthalpy of transition or fusion

CC(C)(CO)CO [2,2-dimethyl-1,3-propanediol]
Conditions	Normal melting temperature [°C]	Triple point temperature [K]
Crystal 1	128.48	–
Crystal 2	–	315.14

[1]
Conditions	molar heat capacity at constant pressure
193.15 K, Crystal 2	120.71 J/K/mol and 121.44 J/K/mol
198.15 K, Crystal 2	122.48 J/K/mol and 123 J/K/mol
203.15 K, Crystal 2	124.15 J/K/mol and 124.36 J/K/mol
208.15 K, Crystal 2	123.83 J/K/mol and 125.5 J/K/mol
213.15 K, Crystal 2	125.6 J/K/mol and 127.58 J/K/mol
218.15 K, Crystal 2	127.48 J/K/mol and 130.08 J/K/mol
223.15 K, Crystal 2	130.08 J/K/mol and 132.06 J/K/mol
228.15 K, Crystal 2	132.79 J/K/mol and 133.62 J/K/mol
233.15 K, Crystal 2	134.98 J/K/mol and 134.87 J/K/mol
238.15 K, Crystal 2	135.71 J/K/mol and 136.54 J/K/mol
243.15 K, Crystal 2	136.64 J/K/mol and 138.1 J/K/mol
248.15 K, Crystal 2	136.64 J/K/mol and 140.5 J/K/mol
253.15 K, Crystal 2	138 J/K/mol and 142.37 J/K/mol
258.15 K, Crystal 2	139.46 J/K/mol and 144.66 J/K/mol
263.15 K, Crystal 2	141.23 J/K/mol and 147.79 J/K/mol
268.15 K, Crystal 2	142.89 J/K/mol and 150.6 J/K/mol
273.15 K, Crystal 2	145.29 J/K/mol and 153.62 J/K/mol
278.15 K, Crystal 2	156.54 J/K/mol and 147.48 J/K/mol
283.15 K, Crystal 2	160.08 J/K/mol and 150.18 J/K/mol
288.15 K, Crystal 2	164.45 J/K/mol and 153.31 J/K/mol
293.15 K, Crystal 2	168.1 J/K/mol and 156.12 J/K/mol
298.15 K, Crystal 2	172.06 J/K/mol and 159.25 J/K/mol
303.15 K, Crystal 2	176.53 J/K/mol and 163.1 J/K/mol
308.15 K, Crystal 2	184.35 J/K/mol and 167.58 J/K/mol
323.15 K, Crystal 1	260.17 J/K/mol and 244.86 J/K/mol
328.15 K, Crystal 1	268.5 J/K/mol and 247.56 J/K/mol
333.15 K, Crystal 1	250.27 J/K/mol and 274.54 J/K/mol
338.15 K, Crystal 1	252.15 J/K/mol and 278.81 J/K/mol
343.15 K, Crystal 1	254.75 J/K/mol and 282.45 J/K/mol
348.15 K, Crystal 1	256.52 J/K/mol and 286.2 J/K/mol
353.15 K, Crystal 1	258.71 J/K/mol and 288.81 J/K/mol
358.15 K, Crystal 1	260.79 J/K/mol and 291.2 J/K/mol
363.15 K, Crystal 1	263.19 J/K/mol and 294.22 J/K/mol
368.15 K, Crystal 1	265.69 J/K/mol and 296.93 J/K/mol
373.15 K, Crystal 1	268.39 J/K/mol and 299.85 J/K/mol
378.15 K, Crystal 1	272.04 J/K/mol and 303.6 J/K/mol
383.15 K, Crystal 1	277.04 J/K/mol and 309.64 J/K/mol
388.15 K, Crystal 1	285.06 J/K/mol and 322.55 J/K/mol
393.15 K, Crystal 1	309.85 J/K/mol and 358.48 J/K/mol
408.15 K, Liquid	330.26 J/K/mol
413.15 K, Liquid	339.95 J/K/mol
418.15 K, Liquid	345.99 J/K/mol
423.15 K, Liquid	353.38 J/K/mol

[2]
Conditions	Molar enthalpy of transition or fusion [kcal/mol]
Crystal 1	1.01
Crystal 2	2.92
